Assay results from patent US7592366B2, “Therapeutic compounds” (Allergan, Inc., priority 2006, dated 2009).

Key:
Type in all cases: cell-based
hEP4/Gqs5 = target: T1, hEP4/Gqs5 (Homo sapiens, UniProt P35408); assay: FLIPR calcium signal, EP4; conditions: HEK-293(EBNA) cells
T1 construct: expressed in transfected cells; host or cells: HEK-293(EBNA)
Experimental: (§1) HEK-293(EBNA) cells, stably expressing one type or subtype of recombinant human prostaglandin receptors (prostaglandin receptors expressed: hDP/Gqs5; hEP1; hEP2/Gqs5; hEP3A/Gqi5; hEP4/Gqs5; hFP; hIP; hTP), were cultured in 100 mm culture dishes in high-glucose DMEM medium containing 10% fetal bovine serum, 2 mM l-glutamine, 250 μg/ml geneticin (G418) and 200 μg/ml hygromycin B as selection markers, and 100 units/ml penicillin G, 100 μg/ml streptomycin and 0.25 μg/ml amphotericin B.
(§2) Cells were seeded at a density of 5×10^4 cells per well in Biocoat® Poly-D-lysine-coated black-wall, clear-bottom 96-well plates (Becton-Dickinson) and allowed to attach overnight in an incubator at 37° C. Cells were then washed two times with HBSS-HEPES buffer (Hanks Balanced Salt Solution without bicarbonate and phenol red, 20 mM HEPES, pH 7.4) using a Denley Cellwash plate washer (Labsystems). After 45 minutes of dye-loading in the dark, using the calcium-sensitive dye Fluo-4 […] at a final concentration of 2 μM, plates were washed four times with HBSS-HEPES buffer to remove excess dye leaving 100 μl in each well. Plates were re-equilibrated to 37° C. for a few minutes.
(§3) Cells were excited with an Argon laser at 488 nm, and emission was measured through a 510-570 nm bandwidth emission filter (FLIPR™, Molecular Devices, Sunnyvale, Calif.). Drug solution was added in a 50 μl volume to each well to give the desired final concentration. The peak increase in fluorescence intensity was recorded for each well. On each plate, four wells each served as negative (HBSS-HEPES buffer) and positive controls (standard agonists: BW245C (hDP); PGE2 (hEP1; hEP2/Gqs5; hEP3A/Gqi5; hEP4/Gqs5); PGF2α (hFP); carbacyclin (hIP); U-46619 (hTP), depending on receptor). The peak fluorescence change in each drug-containing well was then expressed relative to the controls.
Compounds were tested in a high-throughput (HTS) or concentration-response (CoRe) format. In the HTS format, forty-four compounds per plate were examined in duplicates at a concentration of 10^−5 M. To generate concentration-response curves, four compounds per plate were tested in duplicates in a concentration range between 10^−5 and 10^−11 M. The duplicate values were averaged. In either, HTS or CoRe format each compound was tested on at least 3 separate plates using cells from different passages to give an n≧3.

hTP = target: T2, hTP (Homo sapiens, UniProt P21731); assay: FLIPR calcium signal, hTP; conditions: read-out: Other Receptors (EC50 in nM) hTP
T2 construct: expressed in transfected cells; host or cells: HEK-293(EBNA)
T2 sequence (P21731 1-343): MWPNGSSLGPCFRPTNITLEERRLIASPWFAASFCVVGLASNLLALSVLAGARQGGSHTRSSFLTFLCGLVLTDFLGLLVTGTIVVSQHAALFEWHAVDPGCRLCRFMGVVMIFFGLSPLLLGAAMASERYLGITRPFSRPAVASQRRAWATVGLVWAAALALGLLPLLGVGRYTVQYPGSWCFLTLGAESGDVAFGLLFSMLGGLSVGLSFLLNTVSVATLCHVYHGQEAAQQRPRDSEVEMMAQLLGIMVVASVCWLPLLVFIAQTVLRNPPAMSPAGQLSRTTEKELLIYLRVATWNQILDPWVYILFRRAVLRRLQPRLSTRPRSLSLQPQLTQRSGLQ
Experimental: as §1, §2, §3
Compounds were tested in a high-throughput (HTS) or concentration-response (CoRe) format. […]

hFP = target: T3, hFP (Homo sapiens, UniProt P43088); assay: FLIPR calcium signal, hFP; conditions: read-out: Other Receptors (EC50 in nM) hFP
T3 construct: expressed in transfected cells; host or cells: HEK-293(EBNA)
Experimental: as §1
Cells were seeded at a density of 5×10^4 cells per well in Biocoat® Poly-D-lysine-coated black-wall, clear-bottom 96-well plates (Becton-Dickinson) and allowed to attach overnight in an incubator at 37° C. Cells were then washed two times with HBSS-HEPES buffer (Hanks Balanced Salt Solution without bicarbonate and phenol red, 20 mM HEPES, pH 7.4) using a Denley Cellwash plate washer (Labsystems). […]
Cells were excited with an Argon laser at 488 nm, and emission was measured through a 510-570 nm bandwidth emission filter (FLIPR™, Molecular Devices, Sunnyvale, Calif.). […] The peak increase in fluorescence intensity was recorded for each well. […] The peak fluorescence change in each drug-containing well was then expressed relative to the controls. […]

T1 sequence (P35408 whole entry): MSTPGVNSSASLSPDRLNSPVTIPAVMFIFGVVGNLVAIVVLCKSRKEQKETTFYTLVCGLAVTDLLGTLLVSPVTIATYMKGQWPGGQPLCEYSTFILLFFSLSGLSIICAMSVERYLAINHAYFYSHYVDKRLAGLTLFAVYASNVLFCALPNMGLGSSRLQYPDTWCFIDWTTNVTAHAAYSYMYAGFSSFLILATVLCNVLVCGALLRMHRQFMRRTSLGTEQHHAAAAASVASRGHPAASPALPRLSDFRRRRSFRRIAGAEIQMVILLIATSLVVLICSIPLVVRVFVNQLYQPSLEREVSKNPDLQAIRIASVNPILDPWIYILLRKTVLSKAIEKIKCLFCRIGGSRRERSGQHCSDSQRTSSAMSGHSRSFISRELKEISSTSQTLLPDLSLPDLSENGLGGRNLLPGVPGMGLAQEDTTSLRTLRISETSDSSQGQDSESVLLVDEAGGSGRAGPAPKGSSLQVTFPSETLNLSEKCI
T3 sequence (P43088 whole entry): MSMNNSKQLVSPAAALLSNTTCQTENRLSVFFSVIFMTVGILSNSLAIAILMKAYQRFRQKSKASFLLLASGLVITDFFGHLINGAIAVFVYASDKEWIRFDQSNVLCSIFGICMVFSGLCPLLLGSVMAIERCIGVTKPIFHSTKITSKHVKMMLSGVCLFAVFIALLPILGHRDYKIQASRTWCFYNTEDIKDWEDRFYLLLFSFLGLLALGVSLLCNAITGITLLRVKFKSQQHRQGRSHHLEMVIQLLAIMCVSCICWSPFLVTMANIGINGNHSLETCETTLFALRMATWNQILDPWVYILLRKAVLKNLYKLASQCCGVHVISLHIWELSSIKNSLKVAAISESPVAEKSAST

Row | EC50 (hEP4/Gqs5) [µM] | EC50 (hTP) [nM] | EC50 (hFP) [nM] | SMILES
1 | > 10 | 64 |  | O=C(O)c1ccc(CCC[C@@H]2[C@@H](CCc3cc(F)cc(F)c3)[C@H](O)C[C@H]2Cl)s1 [11d, 5-(3-((1R,2R,3R,5R)-5-chloro-2-(3,5-difluorophenethyl)-3-hydroxycyclopentyl)propyl)thiophene-2-carboxylic acid]
2 |  |  | > 10000 | O=C(O)c1ccc(CCC[C@@H]2[C@@H](CCc3cc(Cl)cc(Cl)c3)[C@@H](O)C[C@H]2Cl)s1 [compound 17, 5-(3-((1R,2R,3S,5R)-5-chloro-2-(3,5-dichlorophenethyl)-3-hydroxycyclopenty)propyl)thiophene-2-carboxylic acid]
